This test relates to CD2F1 mice, L1210 leukemia ip, survival T/C. As to the kind of experiment: NCI In Vivo Anticancer Drug Screen. Data for tumor model L1210 Leukemia (intraperitoneal) in CD2F1 (CDF1) mice. The settings on record: higher = longer survival. In short, it runs like this:
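In this screen, transplantable tumors were grown in mice given either the compound or its vehicle. Results were expressed as the treated measurement relative to the control measurement.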

Setting [1] is: endpoint: mean survival time, dose: 200.0 mg/kg/injection, schedule: Q01DX001 (ip), vehicle: saline.
[2] abbreviates: endpoint: mean survival time, dose: 400.0 mg/kg/injection, schedule: Q01DX001 (ip), vehicle: saline.
[3] abbreviates: endpoint: mean survival time, dose: 100.0 mg/kg/injection, schedule: Q01DX009 (ip), vehicle: saline with Tween-80.
Where [4] appears, read: endpoint: mean survival time, dose: 100.0 mg/kg/injection, schedule: Q04DX003 (ip), vehicle: saline with Tween-80.
Where [5] appears, read: endpoint: mean survival time, dose: 200.0 mg/kg/injection, schedule: Q01DX009 (ip), vehicle: saline with Tween-80.
Where [6] appears, read: endpoint: mean survival time, dose: 200.0 mg/kg/injection, schedule: Q04DX003 (ip), vehicle: saline with Tween-80.
Setting [7] is: endpoint: mean survival time, dose: 400.0 mg/kg/injection, schedule: Q04DX003 (ip), vehicle: saline with Tween-80.

Where “and” joins values, the source holds several entries; their conditions need not be identical. Equal values may be shown once. Toxic doses and inconclusive results are not listed.

Turning to `O=P1(NCCCl)OCCCN1CCCl` (stereo not drawn), the T/C (endpoint: mean survival time, dose: 25.0 mg/kg/injection, schedule: Q01DX001 (ip), vehicle: DMSO) is 111 % of control; the T/C (endpoint: mean survival time, dose: 25.0 mg/kg/injection, schedule: Q01DX001 (ip), vehicle: saline) was 102 % of control; the T/C (endpoint: mean survival time, dose: 50.0 mg/kg/injection, schedule: Q01DX001 (ip), vehicle: saline) is 122 % of control; the T/C (endpoint: mean survival time, dose: 100.0 mg/kg/injection, schedule: Q01DX001 (ip), vehicle: DMSO) is 153 % of control; the T/C (endpoint: mean survival time, dose: 200.0 mg/kg/injection, schedule: Q01DX001 (ip), vehicle: DMSO) is 397 % of control; the T/C under setting [1] was 170 % of control. Further, the T/C is 430 % of control (endpoint: mean survival time, dose: 400.0 mg/kg/injection, schedule: Q01DX001 (ip), vehicle: DMSO); 416 % of control (endpoint: mean survival time, dose: 400.0 mg/kg/injection, schedule: Q01DX001 (ip), vehicle: clinical formulation); 326 % of control and 685 % of control under setting [2]; 437 % of control (endpoint: mean survival time, dose: 600.0 mg/kg/injection, schedule: Q01DX001 (ip), vehicle: clinical formulation); 451 % of control (endpoint: mean survival time, dose: 600.0 mg/kg/injection, schedule: Q01DX001 (ip), vehicle: saline); 155 % of control and 157 % of control (endpoint: median survival time, dose: 108.0 mg/kg/injection, schedule: Q01DX001 (ip), vehicle: water). The T/C (endpoint: median survival time, dose: 180.0 mg/kg/injection, schedule: Q01DX001 (ip), vehicle: water) is 166 % of control and 173 % of control; the T/C (endpoint: median survival time, dose: 300.0 mg/kg/injection, schedule: Q01DX001 (ip), vehicle: saline) was 315 % of control; the T/C (endpoint: median survival time, dose: 300.0 mg/kg/injection, schedule: Q01DX001 (ip), vehicle: water) is 200 % of control and 215 % of control; the T/C (endpoint: median survival time, dose: 300.0 mg/kg/injection, schedule: Q01DX001 (iv), vehicle: saline) is 223 % of control; the T/C (endpoint: median survival time, dose: 450.0 mg/kg/injection, schedule: Q01DX001 (ip), vehicle: saline) was 616 % of control; the T/C (endpoint: median survival time, dose: 450.0 mg/kg/injection, schedule: Q01DX001 (iv), vehicle: saline) was 616 % of control. For the same compound, the T/C (endpoint: median survival time, dose: 500.0 mg/kg/injection, schedule: Q01DX001 (ip), vehicle: water) was 65 % of control.
`NC(=S)NNc1c(NNC(N)=S)c(=O)c1=O`: the T/C is 93 % of control (endpoint: mean survival time, dose: 100.0 mg/kg/injection, schedule: Q01DX001 (ip), vehicle: saline); 98 % of control under setting [1]; 102 % of control under setting [2].
As to `CC(=O)CC(O)(C(F)(F)F)C(F)(F)F`, the T/C is, setting by setting: (endpoint: mean survival time, dose: 50.0 mg/kg/injection, schedule: Q01DX009 (ip), vehicle: saline with Tween-80) 101 % of control; under setting [3], 102 % of control; under setting [4], 102 % of control; under setting [5], 101 % of control; under setting [6], 89 % of control.
As to `CCCCCCCC(=O)Nc1cc(C)ccc1C`, the T/C under setting [3] is 94 % of control; the T/C under setting [4] is 98 % of control; the T/C under setting [5] is 94 % of control; the T/C under setting [6] was 97 % of control; the T/C (endpoint: mean survival time, dose: 400.0 mg/kg/injection, schedule: Q01DX009 (ip), vehicle: saline with Tween-80) is 98 % of control; the T/C under setting [7] is 98 % of control.
For `OCC(O)c1ccccc1` (stereo not drawn), the T/C is, setting by setting: (endpoint: mean survival time, dose: 100.0 mg/kg/injection, schedule: Q04DX002 (ip), vehicle: saline) 97 % of control; (endpoint: mean survival time, dose: 200.0 mg/kg/injection, schedule: Q04DX002 (ip), vehicle: saline) 101 % of control; (endpoint: mean survival time, dose: 400.0 mg/kg/injection, schedule: Q04DX002 (ip), vehicle: saline) 104 % of control.
For `CCCCNC(=O)NCCc1ccc(OC)c(OC)c1`, the T/C under setting [3] is 87 % of control and the T/C under setting [5] was 89 % of control.
In the case of `Nc1cc(Cl)c2[nH]cnc2n1`, the T/C by setting is: (endpoint: mean survival time, dose: 6.25 mg/kg/injection, schedule: Q01DX009 (ip), vehicle: distilled water + Tween-80) 107 % of control; (endpoint: mean survival time, dose: 6.25 mg/kg/injection, schedule: Q01DX009 (ip), vehicle: water) 102 % of control; (endpoint: mean survival time, dose: 12.5 mg/kg/injection, schedule: Q01DX009 (ip), vehicle: distilled water + Tween-80) 120 % of control; (endpoint: mean survival time, dose: 12.5 mg/kg/injection, schedule: Q01DX009 (ip), vehicle: water) 113 % of control; (endpoint: mean survival time, dose: 25.0 mg/kg/injection, schedule: Q01DX009 (ip), vehicle: distilled water + Tween-80) 150 % of control; (endpoint: mean survival time, dose: 50.0 mg/kg/injection, schedule: Q01DX009 (ip), vehicle: distilled water + Tween-80) 150 % of control and 164 % of control. Besides, the T/C by setting is: (endpoint: mean survival time, dose: 50.0 mg/kg/injection, schedule: Q04DX003 (ip), vehicle: Klucel (hydroxypropylcellulose) (HPC)) 118 % of control and 110 % of control; (endpoint: mean survival time, dose: 85.0 mg/kg/injection, schedule: Q04DX003 (ip), vehicle: saline with Tween-80) 108 % of control; (endpoint: mean survival time, dose: 100.0 mg/kg/injection, schedule: Q01DX009 (ip), vehicle: distilled water + Tween-80) 151 % of control and 185 % of control; (endpoint: mean survival time, dose: 100.0 mg/kg/injection, schedule: Q04DX003 (ip), vehicle: Klucel (hydroxypropylcellulose) (HPC)) 115 % of control and 109 % of control; (endpoint: mean survival time, dose: 200.0 mg/kg/injection, schedule: Q01DX009 (ip), vehicle: distilled water + Tween-80) 153 % of control and 228 % of control; (endpoint: mean survival time, dose: 200.0 mg/kg/injection, schedule: Q04DX003 (ip), vehicle: Klucel (hydroxypropylcellulose) (HPC)) 108 % of control. Also, the T/C (endpoint: mean survival time, dose: 300.0 mg/kg/injection, schedule: Q04DX003 (ip), vehicle: Klucel (hydroxypropylcellulose) (HPC)) is 120 % of control and 109 % of control; the T/C (endpoint: mean survival time, dose: 400.0 mg/kg/injection, schedule: Q01DX009 (ip), vehicle: distilled water + Tween-80) is 100 % of control; the T/C (endpoint: median survival time, dose: 6.0 mg/kg/injection, schedule: Q01DX009 (ip), vehicle: Klucel (hydroxypropylcellulose) (HPC)) was 108 % of control; the T/C (endpoint: median survival time, dose: 12.0 mg/kg/injection, schedule: Q01DX009 (ip), vehicle: Klucel (hydroxypropylcellulose) (HPC)) was 119 % of control; the T/C (endpoint: median survival time, dose: 25.0 mg/kg/injection, schedule: Q01DX005 (ip), vehicle: saline with Tween-80) is 120 % of control; the T/C (endpoint: median survival time, dose: 25.0 mg/kg/injection, schedule: Q01DX009 (ip), vehicle: Klucel (hydroxypropylcellulose) (HPC)) is 152 % of control. The T/C is 153 % of control (endpoint: median survival time, dose: 25.0 mg/kg/injection, schedule: Q01DX009 (ip), vehicle: saline with Tween-80); 172 % of control (endpoint: median survival time, dose: 50.0 mg/kg/injection, schedule: Q01DX009 (ip), vehicle: Klucel (hydroxypropylcellulose) (HPC)); 188 % of control (endpoint: median survival time, dose: 50.0 mg/kg/injection, schedule: Q01DX009 (ip), vehicle: saline with Tween-80); 161 % of control (endpoint: median survival time, dose: 100.0 mg/kg/injection, schedule: Q01DX005 (ip), vehicle: saline with Tween-80); 178 % of control (endpoint: median survival time, dose: 100.0 mg/kg/injection, schedule: Q01DX009 (ip), vehicle: Klucel (hydroxypropylcellulose) (HPC)); 160 % of control (endpoint: median survival time, dose: 100.0 mg/kg/injection, schedule: Q01DX009 (ip), vehicle: saline with Tween-80). Moreover, the T/C (endpoint: median survival time, dose: 200.0 mg/kg/injection, schedule: Q01DX005 (ip), vehicle: saline with Tween-80) is 159 % of control.
On to `CCOC(=O)C(=O)Nc1cc(C)ccc1C`, for which the T/C (endpoint: mean survival time, dose: 6.25 mg/kg/injection, schedule: Q01DX009 (ip), vehicle: saline with Tween-80) was 96 % of control; the T/C (endpoint: mean survival time, dose: 12.5 mg/kg/injection, schedule: Q01DX009 (ip), vehicle: saline with Tween-80) is 95 % of control; the T/C (endpoint: mean survival time, dose: 25.0 mg/kg/injection, schedule: Q01DX009 (ip), vehicle: saline with Tween-80) was 98 % of control.
Take `Cc1ccc(S(=O)(=O)OCC2OC(n3cnc4c(NC=O)ncnc43)C(OC=O)C2OC=O)cc1` (stereo not drawn): the T/C was 104 % of control (endpoint: mean survival time, dose: 25.0 mg/kg/injection, schedule: Q01DX009 (ip), vehicle: saline); 102 % of control (endpoint: mean survival time, dose: 50.0 mg/kg/injection, schedule: Q01DX009 (ip), vehicle: saline); 98 % of control (endpoint: mean survival time, dose: 100.0 mg/kg/injection, schedule: Q01DX009 (ip), vehicle: saline).
For `CCCCCCCCCCCCNC(=O)C[n+]1cccc(C(=O)N(C)C)c1`, the T/C (endpoint: mean survival time, dose: 5.0 mg/kg/injection, schedule: Q01DX009 (ip), vehicle: saline with Tween-80) is 114 % of control; the T/C (endpoint: mean survival time, dose: 10.0 mg/kg/injection, schedule: Q01DX009 (ip), vehicle: saline with Tween-80) was 97 % of control; the T/C (endpoint: mean survival time, dose: 20.0 mg/kg/injection, schedule: Q01DX009 (ip), vehicle: saline with Tween-80) was 98 % of control.
For the compound `c1ccc(Cc2ccccn2)cc1`, the T/C is 93 % of control (endpoint: mean survival time, dose: 100.0 mg/kg/injection, schedule: Q04DX003 (ip), vehicle: water); 101 % of control (endpoint: mean survival time, dose: 200.0 mg/kg/injection, schedule: Q04DX003 (ip), vehicle: water); 104 % of control (endpoint: mean survival time, dose: 400.0 mg/kg/injection, schedule: Q04DX003 (ip), vehicle: water).
As to `OC1COC(C(F)(F)F)(C(F)(F)F)C1` (stereo not drawn), the T/C was 94 % of control under setting [4], 93 % of control under setting [6] and 96 % of control under setting [7].
